Tested on: D4 receptors, ICR mouse striatum
Experiment: Antagonist effect on D-301-stimulated [35S]GTPγS binding in ICR mouse striatum
Type: biochemical
Conditions: antagonist concentrations up to 1 μM, unpublished data

Q: How did the “effect on D-301-stimulated [35S]GTPγS binding” value turn out when `Clc1ccc(N2CCN(Cc3c[nH]c4ncccc34)CC2)cc1` [LY745870] was run?
A: no significant effect
